Measured values from PMC9020739, “Identification of a two-component regulatory system involved in antimicrobial peptide resistance in Streptococcus pneumoniae” (PLoS Pathogens, 2022).
≈ marks a conversion by molar mass, not a printed value.

Experiments:
[1] = target: BceAB transporter from S. pneumoniae (Streptococcus pneumoniae, UniProt A0A0H2ZN40); type: biochemical; details: for Effect on ATPase activity of BceAB: BceAB proteoliposomes, Fig 7B, triplicates, representative of at least two experiments; for nH (positive cooperativity): ATPase/GTPase activity as a function of nucleotide concentration, fitted with positive cooperativity, proteoliposomes
Method: (§1) E. coli BL21(DE3) cells were transformed with pRSF-Duet1-BceAB WT, K48A or E170Q and selected on LB-agar plates containing 50 μg/mL kanamycin. One colony was inoculated into in 2L-baffled flasks containing 500 mL of 2YT medium and 50 μg/mL kanamycin and grown at 37°C, 180 rpm to OD600 of 0.6. Protein expression was induced by adding IPTG to a final concentration of 1 mM. Induction was performed overnight at 25°C and cells were harvested by centrifugation at 7,000 g for 20 min.
(§2) Cells were resuspended in buffer A (HEPES-NaOH 100 mM pH 8.0, NaCl 150 mM) and lysed by passaging them three times through a cell disruptor (Microfluidizer, Microfluidics) at 18,000 psi (or 1,24 x 108 Pa). Undisrupted cells and cell debris were removed by centrifugation at 15,000 x g for 30 min at 4°C. Membranes were harvested from the supernatant after ultracentrifugation at 150,000 x g for 1 h at 4°C. Membranes were resuspended in 20 mL of buffer A and centrifuged once again at 150,000 x g for 1 h at 4°C. Membrane pellets were homogenized in buffer HEPES-NaOH 100 mM pH 8.0, NaCl 150 mM and 20% glycerol, and stored at -80°C.
(§3) For the purification of BceAB, membranes from 0,5 L cell culture were diluted in buffer B (100 mM d’HEPES-NaOH pH 8, 150 mM NaCl, 10% glycerol) to a protein concentration of 4 mg/mL and solubilized with 0.5% (w/v) LMNG for 2 h at 4°C. After ultracentrifugation at 150,000 x g for 1 h at 4°C, the supernatant containing solubilized proteins was diluted four times using buffer B and loaded on Ni^2+-charged immobilized metal-ion affinity chromatography (IMAC) column (1 mL HisTrap HP, Cytiva). The column was washed with 10 mL of buffer B containing 0.005% (w/v) LMNG and 20 mM of imidazole. The column was further washed with the same buffer until OD280nm reached basal levels. BceAB was eluted by buffer B containing 0.005% (w/v) LMNG and an imidazole gradient from 20 to 500 mM of imidazole. Purified BceAB was dialyzed into buffer B containing 0.005% (w/v) LMNG and stored at -80°C.
(§4) The proteoliposomes were prepared as previously described for the transporter BmrA [50]. Proteoliposomes were loaded on sucrose gradient with different layers of 400 μL of 50 mM HEPES-KOH pH 8.0 buffer containing 30, 20, 15 or 10% of sucrose. One mL of proteoliposomes was loaded on the top of the sucrose gradient and ultra-centrifuged at 200,000 x g for 12 h at 4°C. Proteoliposomes were typically collected from the 15% layer and were loaded on SDS-PAGE to analyze and quantify the presence of BceAB by using a standard-curve of purified BceAB and ImageJ.
(§5) These activities were performed as previously described.

[2] = system: S. pneumoniae R800 ΔbceAB; type: cell-based, Streptococcus pneumoniae; details: R800 strain; 2-fold broth dilution, Todd-Hewitt medium, 37°C, 15 h; at least biological triplicates, each technical duplicates
Method: (§6) The MIC of various antimicrobial peptides for R6, R800 and D39 strains was determined by classical 2-fold broth dilution method. Cells were first grown in Todd-Hewitt medium at 37°C without agitation and in anaerobic conditions until the absorbance reaches approximatively 0.3. Complementation strains were grown with 0.5 μM ComS inducer until the appropriate OD. Cells were then diluted at final OD600nm = 0.002 in 96-well plates containing 300 μL of Todd-Hewitt medium (and 2 μM ComS inducer for the complementation strains) with serial dilutions of antimicrobial peptides. Pneumococcal growth was monitored by a microplate reader (TECAN) at 37°C without agitation. The absorbance was followed at 600 nm every 15 min for 15 h.

S. pneumoniae D39 ΔbceAB = type: cell-based, Streptococcus pneumoniae; details: D39 strain; 2-fold broth dilution, Todd-Hewitt medium, 37°C, 15 h; two to four biological replicates, each technical duplicates
Method: as §6

S. pneumoniae R6 Δtcs01 = type: cell-based, Streptococcus pneumoniae; details: R6 strain; 2-fold broth dilution, Todd-Hewitt medium, 37°C, 15 h; two to four biological replicates, each technical duplicates
Method: as §6

[3] = system: S. pneumoniae R6 ΔbceAB/tcs01; type: cell-based, Streptococcus pneumoniae; details: R6 strain; 2-fold broth dilution, Todd-Hewitt medium, 37°C, 15 h; two to four biological replicates, each technical duplicates
Method: as §6

[4] = system: S. pneumoniae R800 ΔbceAB-Δhk01-PcomX-hk01; type: cell-based, Streptococcus pneumoniae; details: R800 complementation strain, 2 μM ComS inducer; 2-fold broth dilution, Todd-Hewitt medium, 37°C, 15 h; at least biological triplicates, each technical duplicates
Method: as §6

S. pneumoniae R6 ΔbceAB = type: cell-based, Streptococcus pneumoniae; details: R6 strain; 2-fold broth dilution, Todd-Hewitt medium, 37°C, 15 h; two to four biological replicates, each technical duplicates
Method: as §6

[5] = system: S. pneumoniae D39 ΔbceAB/tcs01; type: cell-based, Streptococcus pneumoniae; details: D39 strain; 2-fold broth dilution, Todd-Hewitt medium, 37°C, 15 h; two to four biological replicates, each technical duplicates
Method: as §6

S. pneumoniae D39 WT = type: cell-based, Streptococcus pneumoniae; details: D39 strain; for Minimum Inhibitory Concentration, WT: 2-fold broth dilution, Todd-Hewitt medium, 37°C, 15 h, two to four biological replicates, each technical duplicates; for Fold sensitivity diplayed by the KO strains: KO strains versus WT MIC
Method: as §6

S. pneumoniae R800 WT = type: cell-based, Streptococcus pneumoniae; details: R800 strain; 2-fold broth dilution, Todd-Hewitt medium, 37°C, 15 h; at least biological triplicates, each technical duplicates
Method: as §6

[6] = system: S. pneumoniae R800 bceAB-gfp; type: cell-based, Streptococcus pneumoniae; details: R800 strain; 2-fold broth dilution, Todd-Hewitt medium, 37°C, 15 h; at least biological triplicates, each technical duplicates
Method: as §6

S. pneumoniae D39 Δtcs01 = type: cell-based, Streptococcus pneumoniae; details: D39 strain; 2-fold broth dilution, Todd-Hewitt medium, 37°C, 15 h; two to four biological replicates, each technical duplicates
Method: as §6

S. pneumoniae R6 WT = type: cell-based, Streptococcus pneumoniae; details: R6 strain; for Minimum Inhibitory Concentration, WT: 2-fold broth dilution, Todd-Hewitt medium, 96-well plates, start OD600 0.002, 37°C, A600 followed 15 h, two to four biological replicates, each technical duplicates; for Fold sensitivity displayed by the KO strains: KO strains versus WT MIC
Method: as §6

[7] = system: S. pneumoniae R800 Δhk01-PcomX-hk01; type: cell-based, Streptococcus pneumoniae; details: R800 complementation strain, 2 μM ComS inducer; 2-fold broth dilution, Todd-Hewitt medium, 37°C, 15 h; at least biological triplicates, each technical duplicates
Method: as §6

S. pneumoniae R800 Δhk01 = type: cell-based, Streptococcus pneumoniae; details: R800 strain; 2-fold broth dilution, Todd-Hewitt medium, 37°C, 15 h; at least biological triplicates, each technical duplicates
Method: as §6

[8] = system: bceAB and tcs01 genes in S. pneumoniae D39 WT; assay: Quantification of gene expression by qPCR; type: cell-based, Streptococcus pneumoniae; details: D39 wild-type; vancomycin 375 ng/ml for 15 min; n = 8
Method: S. pneumoniae D39 WT and Δtcs01 strains were routinely grown to OD600nm = 0.3 in THY. Then 1 μg/mL of bacitracin was added to the growth media for up to 30 min. Samples were taken at time points shown in the results section. Next, the cultures were mixed with RNA protect (Qiagen) at 1:1 ratio and incubated at room temperature for 5 min and centrifuged for 10 min at 3, 200 g at 4°C. The supernatant was decanted and the pellet was stored at -80°C. The bacteria were resuspended in 100 μL of sterile Tris-EDTA (TE), containing 15 mg/mL lysozyme (Sigma) then 20 μL of Proteinase K (20 mg/mL) (Roche) were added. The sample was vortexed 5 times for 10 sec at two-minutes intervals. Then 350 μL of lysis buffer from the Nucleospin RNA kit (Macherey-Nagel) were added to the sample with 3.5 μL of β-mercaptoethanol and 25 mg of glass beads (Sigma). The cells were lysed by continual vortexing for 5 min. The mRNA was extracted according to the manufacturer’s instructions. After elution, RNA samples were incubated with 5 μL of DNAse for 20 min at room temperature, then inactivated by heating for 70°C for 5 min. RNA concentration was measured using Nanovue (GE Healthcare). For cDNA synthesis 1 μg of RNA was generally used with the SuperScript III kit (Invitrogen) containing a reverse transcriptase, a set of primers, dNTPs, MgCl2 random hexamers and […] after the cDNA generation according to manufacturer’s instructions. Samples were then stored at -20°C. qPCR measurements were done with 2.5 μL of cDNA mixed with 1 μL (3 μM final) of forward and reverse primers, 5 μL iQ SYBR Green Supermix (BioRad) and 0.5 μL water using the CFX Connect Optical Module (BioRad) program as follows: 95°C for 3 min, then a repeat 40 times of 95°C for 10 sec, 55°C for 30 sec, and a fluorescence reading.

[9] = system: Nc1ncnc2c1ncn2[C@@H]1O[C@H](COP(=O)(O)OP(=O)(O)OP(=O)(O)O)[C@@H](O)[C@H]1O; assay: purified protein, by the assay type; type: biochemical, Streptococcus pneumoniae; details: other: ATPase/GTPase activity as a function of nucleotide concentration, fitted with positive cooperativity; proteoliposomes; pH 8.0
Method: as §1, §2, §3, §4, §5

[10] = system: Nc1nc2c(ncn2[C@@H]2O[C@H](COP(=O)(O)OP(=O)(O)OP(=O)(O)O)[C@@H](O)[C@H]2O)c(=O)[nH]1; assay: purified protein, by the assay type; type: biochemical, Streptococcus pneumoniae; details: other: ATPase/GTPase activity as a function of nucleotide concentration, fitted with positive cooperativity; proteoliposomes; pH 8.0
Method: as §1, §2, §3, §4, §5

Row | Compound | Effect on ATPase activity of BceAB [1] | MIC, ΔbceAB [2] [µg/mL] | Minimum Inhibitory Concentration, ΔbceAB (S. pneumoniae D39 ΔbceAB) [µg/mL] | Minimum Inhibitory Concentration, Δtcs01 (S. pneumoniae R6 Δtcs01) [µg/mL] | Minimum Inhibitory Concentration, ΔbceAB/tcs01 [3] [µg/mL] | MIC, ΔbceAB-Δhk01-PcomX-hk01 [4] [µg/mL] | Minimum Inhibitory Concentration, ΔbceAB (S. pneumoniae R6 ΔbceAB) [µg/mL] | Minimum Inhibitory Concentration, ΔbceAB/tcs01 [5] [µg/mL] | Minimum Inhibitory Concentration, WT (S. pneumoniae D39 WT) [µg/mL] | Fold sensitivity diplayed by the KO strains (S. pneumoniae D39 WT) | MIC, WT (S. pneumoniae R800 WT) [µg/mL] | MIC, bceAB-gfp [6] [µg/mL] | Minimum Inhibitory Concentration, Δtcs01 (S. pneumoniae D39 Δtcs01) [µg/mL] | Minimum Inhibitory Concentration, WT (S. pneumoniae R6 WT) [µg/mL] | Fold sensitivity displayed by the KO strains (S. pneumoniae R6 WT) | MIC, Δhk01-PcomX-hk01 [7] [µg/mL] | MIC, Δhk01 (S. pneumoniae R800 Δhk01) [µg/mL] | nH (positive cooperativity) [1] | further results
1 | CN[C@H](CC(C)C)C(=O)N[C@H]1C(=O)N[C@@H](CC(N)=O)C(=O)N[C@H]2C(=O)N[C@H]3C(=O)N[C@H](C(=O)N[C@H](C(=O)O)c4cc(O)cc(O)c4-c4cc3ccc4O)[C@H](O)c3ccc(c(Cl)c3)Oc3cc2cc(c3O[C@@H]2O[C@H](CO)[C@@H](O)[C@H](O)[C@H]2O[C@H]2C[C@](C)(N)[C@H](O)[C@H](C)O2)Oc2ccc(cc2Cl)[C@H]1O [vancomycin] | did not significantly affect | 0.25 (≈ 0.173 µM) | 0.25 | 0.5 | 0.5 | 0.25 (≈ 0.173 µM) | 0.5 | 0.25 | 0.25 | 1 | 0.25 (≈ 0.173 µM) | 0.25 (≈ 0.173 µM) | 0.25 | 0.5 | 1 | 0.25 (≈ 0.173 µM) | 0.25 (≈ 0.173 µM) |  | Transcription of the bceAB genes [8]: no upregulation
2 | actagardin |  | 4 | 2 | 2 | 2 | 4 | 2 | 2 | 32 | 16 | 32 | 32 | 2 | 32 | 16 | 32 | 4 |  | 
3 | BceAB transporter from S. pneumoniae (Streptococcus pneumoniae D39) |  |  |  |  |  |  |  |  |  |  |  |  |  |  |  |  |  |  | Km [9]: 1000 µM; Km [10]: 1300 µM
4 | Nc1nc2c(ncn2[C@@H]2O[C@H](COP(=O)(O)OP(=O)(O)OP(=O)(O)O)[C@@H](O)[C@H]2O)c(=O)[nH]1 [GTP] |  |  |  |  |  |  |  |  |  |  |  |  |  |  |  |  |  | 1.9 | 
5 | Nc1ncnc2c1ncn2[C@@H]1O[C@H](COP(=O)(O)OP(=O)(O)OP(=O)(O)O)[C@@H](O)[C@H]1O [ATP] |  |  |  |  |  |  |  |  |  |  |  |  |  |  |  |  |  | 2.4 | 
6 | ramoplanin | clear inhibitory effect | 0.02 | 0.03 | 0.02 | 0.02 | 0.02 | 0.02 | 0.03 | 0.03 | 1 | 0.02 | 0.02 | 0.03 | 0.02 | 1 | 0.02 | 0.02 |  | 
